Measured values reported in publication PMC9516332 (Frontiers in Oncology, 2022).
Read-outs that look alike come from different tables or passages of the source.

How the values were obtained:
[1] = biological target: panel of 255 wild-type kinases (Homo sapiens, UniProt P78362); conditions: kinase SRPK2, 1 µmol/L single concentration, cited from earlier work
[2] = biological target: T1, panel of 255 wild-type kinases (Homo sapiens, UniProt Q96KB5); conditions: kinase PBK, 1 µmol/L single concentration, cited from earlier work
T1 sequence (Q96KB5 1-322): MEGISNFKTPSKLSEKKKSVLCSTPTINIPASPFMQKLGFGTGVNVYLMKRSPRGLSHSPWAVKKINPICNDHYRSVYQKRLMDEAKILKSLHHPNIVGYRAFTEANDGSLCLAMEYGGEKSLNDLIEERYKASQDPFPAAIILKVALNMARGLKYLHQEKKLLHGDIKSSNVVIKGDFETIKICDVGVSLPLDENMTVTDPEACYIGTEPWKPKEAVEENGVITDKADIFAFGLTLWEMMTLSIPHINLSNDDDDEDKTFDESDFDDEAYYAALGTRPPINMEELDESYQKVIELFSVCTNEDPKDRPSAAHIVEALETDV

[3] = biological target: T2, panel of 255 wild-type kinases (Homo sapiens, UniProt Q96PN8); conditions: kinase TSSK3, 1 µmol/L single concentration, cited from earlier work
T2 sequence (Q96PN8 1-268): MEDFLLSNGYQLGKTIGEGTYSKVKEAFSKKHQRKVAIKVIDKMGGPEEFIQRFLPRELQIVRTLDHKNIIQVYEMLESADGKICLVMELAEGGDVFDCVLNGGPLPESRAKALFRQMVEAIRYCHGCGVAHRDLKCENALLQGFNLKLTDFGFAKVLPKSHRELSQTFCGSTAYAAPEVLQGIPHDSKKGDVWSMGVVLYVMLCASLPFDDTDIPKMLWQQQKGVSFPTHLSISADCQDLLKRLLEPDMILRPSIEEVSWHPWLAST

[4] = ref DOI: 10.1371/journal.pone.0092146
[5] = ref DOI: 10.1158/1535-7163.MCT-18-0877

| SMILES | IC50 (134 cancer cell lines) | %-inhibition at 1 µmol/L, SRPK2 [1, 4] | %-inhibition at 1 µmol/L, PBK [2, 4] | %-inhibition at 1 µmol/L, TSSK3 [3, 4] | %-inhibition at 1 µmol/L, SRPK2 [1, 5] | %-inhibition at 1 µmol/L, PBK [2, 5] | %-inhibition at 1 µmol/L, TSSK3 [3, 5] |
| --- | --- | --- | --- | --- | --- | --- | --- |
| CCCS(=O)(=O)Nc1ccc(F)c(C(=O)c2c[nH]c3ncc(-c4ccc(Cl)cc4)cc23)c1F [vemurafenib] | > 31600 nM | -2.2% | -12% | -3.19% |  |  |  |
| CC(=O)Nc1cccc(-n2c(=O)n(C3CC3)c(=O)c3c(Nc4ccc(I)cc4F)n(C)c(=O)c(C)c32)c1 [trametinib] | 76 nM | -0.868% | -3.79% | -8% |  |  |  |
| CC(C)(C)c1nc(-c2cccc(NS(=O)(=O)c3c(F)cccc3F)c2F)c(-c2ccnc(N)n2)s1 [dabrafenib] | 1080 nM | 11% | 12% | -8% |  |  |  |
| O=C(c1ccc(F)c(F)c1Nc1ccc(I)cc1F)N1CC(O)([C@@H]2CCCCN2)C1 [cobimetinib] | 56 nM |  |  |  | 3% | 76% | -5% |
| Cc1cc(Nc2ncc(Cl)c(Nc3ccccc3S(=O)(=O)C(C)C)n2)c(OC(C)C)cc1C1CCNCC1 [ceritinib] | 3850 nM |  |  |  | 80% | -11% | 8% |
| C[C@@H](Oc1cc(-c2cnn(C3CCNCC3)c2)cnc1N)c1c(Cl)ccc(F)c1Cl [crizotinib] |  | -2.33% | -14% | -0.601% |  |  |  |
